Assay results published in ChEMBL document CHEMBL1201862, “PubChem BioAssay data set” (2004).
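Growth conditions: 96-well plates. Treatment: test compound, 48 hours, 5 concentrations. Analysis: linear interpolation between bracketing concentrations; unreached endpoints set to highest concentration. Here, GI50 denotes the concentration required for 50% inhibition of growth.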 Active and inactive are the calls of the source. Cut-off read from the data, not from the text of the source: active = GI50 up to about 1.1 µM and inactive = higher.

What was measured:
Experiment in all cases: inhibition of tumour cell growth, NCI panel, 48 h
NCI-H460 = test system: NCI-H460
SNB-75 = test system: SNB-75
SF-295 = test system: SF-295
OVCAR-4 = test system: OVCAR-4
UACC-62 = test system: UACC-62
IGROV-1 = test system: IGROV-1
M19-MEL = test system: M19-MEL
HCC 2998 = test system: HCC 2998
K562 = test system: K562
M14 = test system: M14
SW-620 = test system: SW-620
HT-29 = test system: HT-29
SK-MEL-5 = test system: SK-MEL-5
DMS-273 = test system: DMS-273
LXFL 529 = test system: LXFL 529
KM12 = test system: KM12
DMS-114 = test system: DMS-114
786-0 = test system: 786-0
HL-60 = test system: HL-60
Malme-3M = test system: Malme-3M
KM-20L2 = test system: KM-20L2
UO-31 = test system: UO-31
HCT-116 = test system: HCT-116
SK-MEL-2 = test system: SK-MEL-2
XF498 = test system: XF498
HOP-62 = test system: HOP-62
TK-10 = test system: TK-10
RPMI-8226 = test system: RPMI-8226
OVCAR-5 = test system: OVCAR-5
COLO 205 = test system: COLO 205
NCI-H23 = test system: NCI-H23
DLD-1 = test system: DLD-1
SNB-19 = test system: SNB-19
MOLT-4 = test system: MOLT-4
OVCAR-3 = test system: OVCAR-3
SK-MEL-28 = test system: SK-MEL-28
ACHN = test system: ACHN
SR = test system: SR
CCRF-CEM = test system: CCRF-CEM
CAKI-1 = test system: CAKI-1
HOP-92 = test system: HOP-92
U-251 = test system: U-251
OVCAR-8 = test system: OVCAR-8
SF-539 = test system: SF-539
UACC-257 = test system: UACC-257
NCI-H522 = test system: NCI-H522
HCT-15 = test system: HCT-15
A549 = test system: A549
SF-268 = test system: SF-268
NCI-H226 = test system: NCI-H226
NCI/ADR-RES = test system: NCI/ADR-RES
MCF7 = test system: MCF7
MDA-N = test system: MDA-N
A498 = test system: A498
BT-549 = test system: BT-549
MDA-MB-231 = test system: MDA-MB-231
SN12C = test system: SN12C
MDA-MB-435 = test system: MDA-MB-435
EKVX = test system: EKVX
RXF 393 = test system: RXF 393
PC-3 = test system: PC-3
DU-145 = test system: DU-145
LOX IMVI = test system: LOX IMVI
T47D = test system: T47D
Hs-578T = test system: Hs-578T
SK-OV-3 = test system: SK-OV-3

SMILES: N#Cc1c2ccccc2cn1-c1ccc(F)cc1
- GI50 (NCI-H460): 29.7 µM (inactive)
- GI50 (SNB-75): 2.61 µM (inactive)
- GI50 (SF-295): 23.5 µM (inactive)
- GI50 (OVCAR-4): 8.73 µM (inactive)
- GI50 (UACC-62): 30 µM (inactive)
- GI50 (IGROV-1): 67.6 µM (inactive)
- GI50 (M19-MEL): 37.8 µM (inactive)
- GI50 (HCC 2998): 43.9 µM (inactive)
- GI50 (K562): 26.7 µM (inactive)
- GI50 (M14): 35.2 µM (inactive)
- GI50 (SW-620): 46.2 µM (inactive)
- GI50 (HT-29): 23.5 µM (inactive)
- GI50 (SK-MEL-5): > 10 µM (inactive)
- GI50 (DMS-273): > 10 µM (inactive)
- GI50 (LXFL 529): 31.3 µM (inactive)
- GI50 (KM12): 21.8 µM (inactive)
- GI50 (DMS-114): 16.2 µM (inactive)
- GI50 (786-0): 30.3 µM (inactive)
- GI50 (HL-60): 4.62 µM (inactive)
- GI50 (Malme-3M): 33.7 µM (inactive)
- GI50 (KM-20L2): 31.9 µM (inactive)
- GI50 (UO-31): 8.59 µM (inactive)
- GI50 (HCT-116): 16.8 µM (inactive)
- GI50 (SK-MEL-2): > 10 µM (inactive)
- GI50 (XF498): 42.2 µM (inactive)
- GI50 (HOP-62): 23 µM (inactive)
- GI50 (TK-10): 29 µM (inactive)
- GI50 (RPMI-8226): 22 µM (inactive)
- GI50 (OVCAR-5): 45.6 µM (inactive)
- GI50 (COLO 205): 26.2 µM (inactive)
- GI50 (NCI-H23): 17.7 µM (inactive)
- GI50 (DLD-1): 48.8 µM (inactive)
- GI50 (SNB-19): 22.4 µM (inactive)
- GI50 (MOLT-4): 27.4 µM (inactive)
- GI50 (OVCAR-3): 19.8 µM (inactive)
- GI50 (SK-MEL-28): 47.8 µM (inactive)
- GI50 (ACHN): 27.2 µM (inactive)
- GI50 (SR): > 10 µM (inactive)
- GI50 (CCRF-CEM): 31 µM (inactive)
- GI50 (CAKI-1): 33 µM (inactive)
- GI50 (HOP-92): 20.6 µM (inactive)
- GI50 (U-251): 39.1 µM (inactive)
- GI50 (OVCAR-8): > 10 µM (inactive)
- GI50 (SF-539): 24.8 µM (inactive)
- GI50 (UACC-257): 26.9 µM (inactive)
- GI50 (NCI-H522): 14.4 µM (inactive)
- GI50 (HCT-15): > 10 µM
- GI50 (A549): 24.6 µM (inactive)
- GI50 (SF-268): 24.5 µM (inactive)
- GI50 (NCI-H226): 9.27 µM (inactive)

SMILES: CC1=C/C(=C(/c2ccc(O)c(C)c2)c2ccccc2C(=O)O)C=CC1=O
- GI50 (NCI-H460): 31.5 µM (inactive)
- GI50 (SNB-75): 18.5 µM (inactive)
- GI50 (SF-295): 21.8 µM (inactive)
- GI50 (NCI/ADR-RES): 31 µM (inactive)
- GI50 (MCF7): 19.7 µM (inactive)
- GI50 (OVCAR-4): 18.1 µM (inactive)
- GI50 (UACC-62): 17.2 µM (inactive)
- GI50 (IGROV-1): 18.1 µM (inactive)
- GI50 (MDA-N): 18.7 µM (inactive)
- GI50 (HCC 2998): 19.1 µM (inactive)
- GI50 (K562): 21.3 µM (inactive)
- GI50 (M14): 18.3 µM (inactive)
- GI50 (SW-620): 19 µM (inactive)
- GI50 (HT-29): 21.9 µM (inactive)
- GI50 (A498): 18.7 µM (inactive)
- GI50 (SK-MEL-5): 20.4 µM (inactive)
- GI50 (KM12): 19.3 µM (inactive)
- GI50 (786-0): 19 µM (inactive)
- GI50 (HL-60): 20.8 µM (inactive)
- GI50 (Malme-3M): 24.9 µM (inactive)
- GI50 (BT-549): 21.1 µM (inactive)
- GI50 (MDA-MB-231): 19.9 µM (inactive)
- GI50 (UO-31): 18.8 µM (inactive)
- GI50 (HCT-116): 18.2 µM (inactive)
- GI50 (SK-MEL-2): 20.6 µM (inactive)
- GI50 (SN12C): 19.6 µM (inactive)
- GI50 (HOP-62): 19 µM (inactive)
- GI50 (TK-10): 17.3 µM (inactive)
- GI50 (RPMI-8226): 20 µM (inactive)
- GI50 (OVCAR-5): 21.2 µM (inactive)
- GI50 (COLO 205): 19.9 µM (inactive)
- GI50 (NCI-H23): 20.2 µM (inactive)
- GI50 (MDA-MB-435): 17.6 µM (inactive)
- GI50 (EKVX): 19.4 µM (inactive)
- GI50 (SNB-19): 17.7 µM (inactive)
- GI50 (RXF 393): 17.4 µM (inactive)
- GI50 (MOLT-4): 21.9 µM (inactive)
- GI50 (PC-3): 19.6 µM (inactive)
- GI50 (DU-145): 18.1 µM (inactive)
- GI50 (OVCAR-3): 18 µM (inactive)
- GI50 (SK-MEL-28): 20.4 µM (inactive)
- GI50 (ACHN): 18.3 µM (inactive)
- GI50 (SR): 20.7 µM (inactive)
- GI50 (CCRF-CEM): 21.8 µM (inactive)
- GI50 (CAKI-1): 17.6 µM (inactive)
- GI50 (HOP-92): 20.3 µM (inactive)
- GI50 (LOX IMVI): 20.7 µM (inactive)
- GI50 (U-251): 18.2 µM (inactive)
- GI50 (OVCAR-8): 20 µM (inactive)
- GI50 (SF-539): 19 µM (inactive)
- GI50 (UACC-257): 18.7 µM (inactive)
- GI50 (NCI-H522): 21.5 µM (inactive)
- GI50 (HCT-15): 21.4 µM
- GI50 (T47D): 26.8 µM (inactive)
- GI50 (Hs-578T): 25.4 µM (inactive)
- GI50 (A549): 19.5 µM (inactive)
- GI50 (SK-OV-3): 19.2 µM (inactive)
- GI50 (SF-268): 25.2 µM (inactive)
- GI50 (NCI-H226): 23.1 µM (inactive)
